The subject of the test is MDA-MB-231. Nature of the test: Inhibitory concentration required for antiproliferative activity against human MDA-MB-231 cells. In kind it is functional, cell-based.

Data on eight molecules can be found in ChEMBL document CHEMBL1141133, “Synthesis of a resveratrol analogue with high ceramide-mediated proapoptotic activity on human breast cancer cells” (J Med Chem, 2005).

A value given as a limit tells only on which side of the number the result lay.

As for `COc1ccc2cc(-c3cc(O)cc(O)c3)ccc2c1`, the IC50 (in general, the concentration that gives 50% inhibition) turned out to be 28.3 µM.
As for `COc1cc(OC)cc(-c2ccc3cc(OC)ccc3c2)c1`, the figure is 45.1 µM; as for `Oc1cc(O)cc(-c2ccc3cc(O)ccc3c2)c1`, 12.7 µM.
On to `COc1cc(OC)cc(-c2ccc3cc(O)ccc3c2)c1`, for which the IC50 amounted to 7.2 µM.
To `COc1cc(/C=C/c2ccc(O)cc2)cc(OC)c1` [PTEROSTILBENE] belongs 10 µM.
To `COc1ccc(/C=C/c2cc(O)cc(O)c2)cc1` [RESVERATROL 4'-METHYL ETHER] belongs > 50 µM.
`Oc1ccc(/C=C/c2cc(O)cc(O)c2)cc1` [RESVERATROL] had an IC50 of 20.5 µM.
To `COc1ccc(/C=C/c2cc(OC)cc(OC)c2)cc1` [TRISMETHOXYRESVERATROL] belongs 1.2 µM.
